Activity calls are given as the source filed them. No cut-off for these calls is given here.
Assays:
[1] = biological target: Fibroblast growth factor receptor 1 (Homo sapiens, UniProt P11362); test: biochemical; format: cell-based
Description: Inhibition of N-terminal 6-his tagged human wild type FGFR1 (458 to 765 residues) expressed in Escherichia coli BL21 cells using Tyr 04 peptide as substrate incubated for 1 hr by FRET based Z-lyte assay

[2] = Metabolic stability in human liver microsomes assessed as half life at 1 uM measured upto 45 mins in presence of NADPH by HPLC-MS/MS analysis; format: ADME, Microsome
[3] = Metabolic stability in human liver microsomes assessed as intrinsic clearance at 1 uM measured upto 45 mins in presence of NADPH by HPLC-MS/MS analysis; format: ADME, Microsome; settings: read-out: CLH
[4] = Metabolic stability in human liver microsomes assessed as hepatic clearance at 1 uM measured upto 45 mins in presence of NADPH by HPLC-MS/MS analysis; format: ADME, Microsome
[5] = Metabolic stability in human liver microsomes assessed as hepatic extraction ratio at 1 uM measured upto 45 mins in presence of NADPH by HPLC-MS/MS analysis; format: ADME, Microsome; settings: read-out: ERH
SNU-16 [6] = test: Antiproliferative activity against human SNU-16 cells measured after 3 days by CCK-8 method; format: functional, cell-based; settings: SNU-16, 72 h
[7] = Antiproliferative activity against human KATO III stomach cancer cell line measured after 3 days by CCK-8 method; format: functional, cell-based; settings: 72 h
NCI-H520 = test: Antiproliferative activity against human NCI-H520 cells measured after 3 days by CCK-8 method; format: functional, cell-based; settings: NCI-H520, 72 h
[8] = biological target: T1, Fibroblast growth factor receptor 2 (Homo sapiens, UniProt P21802); test: biochemical; format: cell-based
Target sequence in this assay (P21802 whole entry): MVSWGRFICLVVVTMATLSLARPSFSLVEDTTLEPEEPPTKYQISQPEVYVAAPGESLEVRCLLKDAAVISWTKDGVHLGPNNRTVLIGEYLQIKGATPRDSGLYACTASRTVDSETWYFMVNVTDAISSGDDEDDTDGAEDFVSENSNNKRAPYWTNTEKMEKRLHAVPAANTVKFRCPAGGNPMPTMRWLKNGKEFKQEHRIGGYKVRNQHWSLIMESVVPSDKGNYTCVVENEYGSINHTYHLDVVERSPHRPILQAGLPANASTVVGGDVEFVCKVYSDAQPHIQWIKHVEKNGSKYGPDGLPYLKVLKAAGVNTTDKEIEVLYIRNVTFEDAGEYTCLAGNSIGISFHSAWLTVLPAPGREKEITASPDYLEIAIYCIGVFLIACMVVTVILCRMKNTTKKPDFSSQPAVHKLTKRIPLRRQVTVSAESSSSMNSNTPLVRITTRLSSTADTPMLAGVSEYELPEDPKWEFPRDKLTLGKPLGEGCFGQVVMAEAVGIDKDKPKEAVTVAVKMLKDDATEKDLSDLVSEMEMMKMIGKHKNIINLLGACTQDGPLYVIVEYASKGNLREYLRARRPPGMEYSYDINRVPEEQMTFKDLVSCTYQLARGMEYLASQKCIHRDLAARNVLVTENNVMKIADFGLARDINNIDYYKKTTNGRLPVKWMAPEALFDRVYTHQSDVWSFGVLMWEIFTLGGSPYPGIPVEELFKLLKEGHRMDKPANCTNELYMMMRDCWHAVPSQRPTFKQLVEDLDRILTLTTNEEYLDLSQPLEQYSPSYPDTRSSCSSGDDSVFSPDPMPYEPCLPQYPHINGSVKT
Description: Inhibition of N-terminal 6-his tagged human wild type FGFR2 (458 to 768 residues) expressed in Escherichia coli BL21 cells using Tyr 04 peptide as substrate incubated for 1 hr by FRET based Z-lyte assay

[9] = biological target: Fibroblast growth factor receptor 3 (Homo sapiens, UniProt P22607); test: Inhibition of FGFR3 (unknown origin) using Tyr 04 peptide as substrate incubated for 1 hr by FRET based Z-lyte assay
[10] = biological target: Fibroblast growth factor receptor 2 (Homo sapiens, UniProt P21802, V564F); test: Inhibition of FGFR2 V564F mutant (unknown origin) using (Poly (4:1 Glu, Tyr) peptide as substrate by ADP-Glo kinase assay
BaF3 [11] = test: Antiproliferative activity against mouse BaF3 cells harbouring FGFR2 V564F mutant assessed as reduction in cell viability incubated for 72 hrs by CCK-8 method; format: functional, cell-based; settings: BaF3, 72 h
[12] = biological target: Fibroblast growth factor receptor 2 (Mus musculus) (UniProt P21803); test: Inhibition of FGFR2 phosphorylation in mouse BaF3 cells harbouring FGFR2 V564F mutant measured after 6 hrs by Western blot analysis; format: cell-based; settings: dose 0-1000 nM
BaF3 [13] = test: Inhibition of AKT phosphorylation in mouse BaF3 cells harbouring FGFR2 V564F mutant measured after 6 hrs by Western blot analysis; format: cell-based; settings: dose 0-1000 nM
[14] = biological target: T1, Fibroblast growth factor receptor 2; test: Inhibition of FGFR2 phosphorylation in human SNU-16 measured after 2 hrs by Western blot analysis; format: cell-based; settings: dose 0-300 nM
Target sequence in this assay (P21802 22-821 limits assumed): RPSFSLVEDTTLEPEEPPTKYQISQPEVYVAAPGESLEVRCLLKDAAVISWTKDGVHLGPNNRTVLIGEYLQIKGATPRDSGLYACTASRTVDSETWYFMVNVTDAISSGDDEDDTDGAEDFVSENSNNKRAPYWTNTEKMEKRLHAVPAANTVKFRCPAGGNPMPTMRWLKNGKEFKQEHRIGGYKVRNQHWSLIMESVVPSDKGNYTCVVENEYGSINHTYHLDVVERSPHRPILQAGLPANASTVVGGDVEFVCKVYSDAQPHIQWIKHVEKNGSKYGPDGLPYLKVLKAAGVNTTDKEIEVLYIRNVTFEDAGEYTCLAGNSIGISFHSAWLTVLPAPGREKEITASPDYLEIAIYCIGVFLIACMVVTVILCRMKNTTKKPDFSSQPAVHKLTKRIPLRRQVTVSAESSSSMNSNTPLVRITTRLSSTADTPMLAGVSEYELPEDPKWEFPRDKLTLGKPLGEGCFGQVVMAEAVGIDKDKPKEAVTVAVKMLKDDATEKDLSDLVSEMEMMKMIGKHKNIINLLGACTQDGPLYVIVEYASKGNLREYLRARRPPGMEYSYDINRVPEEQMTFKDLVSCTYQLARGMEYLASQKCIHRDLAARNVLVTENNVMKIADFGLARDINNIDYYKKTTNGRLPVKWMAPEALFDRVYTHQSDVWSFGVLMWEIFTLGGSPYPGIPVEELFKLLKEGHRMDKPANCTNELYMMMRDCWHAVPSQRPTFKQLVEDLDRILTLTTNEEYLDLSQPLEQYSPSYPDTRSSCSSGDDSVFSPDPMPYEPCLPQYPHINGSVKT

SNU-16 [15] = test: Inhibition of AKT phosphorylation in human SNU-16 measured after 2 hrs by Western blot analysis; format: cell-based; settings: dose 0-300 nM
BaF3 [16] = test: Effect on AKT protein level in mouse BaF3 cells harbouring FGFR2 V564F mutant at 0 to 1000 nM measured after 6 hrs by Western blot analysis; format: functional, cell-based; settings: dose 0-1000 nM
BaF3 [17] = test: Effect on FGFR2 protein level in mouse BaF3 cells harbouring FGFR2 V564F mutant at 0 to 1000 nM measured after 6 hrs by Western blot analysis; format: functional, cell-based; settings: dose 0-1000 nM
KATO III = test: Induction of cell cycle arrest in human KATO III stomach cancer cell line assessed as accumulation of cells at G1 phase measured after 24 hrs by PI staining based flow cytometry analysis; format: functional; settings: dose 10-1000 nM
[18] = Induction of cell cycle arrest in human KATO III stomach cancer cell line assessed as accumulation of cells at G1 phase at 10 nM measured after 24 hrs by PI staining based flow cytometry analysis (reference value: 29.8%); format: functional
[19] = Induction of cell cycle arrest in human KATO III stomach cancer cell line assessed as accumulation of cells at G1 phase at 100 nM measured after 24 hrs by PI staining based flow cytometry analysis (reference value: 29.8%); format: functional
[20] = Induction of cell cycle arrest in human KATO III stomach cancer cell line assessed as accumulation of cells at G1 phase at 1000 nM measured after 24 hrs by PI staining based flow cytometry analysis (reference value: 29.8%); format: functional
[21] = Induction of cell cycle arrest in human KATO III stomach cancer cell line assessed as accumulation of cells at S phase at 10 nM measured after 24 hrs by PI staining based flow cytometry analysis (reference value: 28.3%); format: functional
[22] = Induction of cell cycle arrest in human KATO III stomach cancer cell line assessed as accumulation of cells at S phase at 100 nM measured after 24 hrs by PI staining based flow cytometry analysis (reference value: 28.3%); format: functional
[23] = Induction of cell cycle arrest in human KATO III stomach cancer cell line assessed as accumulation of cells at G2 phase at 1000 nM measured after 24 hrs by PI staining based flow cytometry analysis (reference value: 42.5%); format: functional
[24] = Induction of apoptosis in human KATO III stomach cancer cell line assessed as viable cells at 10 nM incubated for 48 hrs by annexin V-FITC/PI staining based flow cytometry analysis (reference value: 90.1%); format: functional; settings: read-out: Activity
[25] = Induction of apoptosis in human KATO III stomach cancer cell line assessed as viable cells at 100 nM incubated for 48 hrs by annexin V-FITC/PI staining based flow cytometry analysis (reference value: 90.1%); format: functional; settings: read-out: Activity
[26] = Induction of apoptosis in human KATO III stomach cancer cell line assessed as viable cells at 1000 nM incubated for 48 hrs by annexin V-FITC/PI staining based flow cytometry analysis (reference value: 90.1%); format: functional; settings: read-out: Activity
[27] = Induction of apoptosis in human KATO III stomach cancer cell line assessed as early apoptotic cells at 10 nM incubated for 48 hrs by annexin V-FITC/PI staining based flow cytometry analysis (reference value: 3.40%); format: functional
[28] = Induction of apoptosis in human KATO III stomach cancer cell line assessed as early apoptotic cells at 100 nM incubated for 48 hrs by annexin V-FITC/PI staining based flow cytometry analysis (reference value: 3.40%); format: functional
[29] = Induction of apoptosis in human KATO III stomach cancer cell line assessed as early apoptotic cells at 1000 nM incubated for 48 hrs by annexin V-FITC/PI staining based flow cytometry analysis (reference value: 3.40%); format: functional
[30] = Induction of apoptosis in human KATO III stomach cancer cell line assessed as late apoptotic cells at 10 nM incubated for 48 hrs by annexin V-FITC/PI staining based flow cytometry analysis (reference value: 6.39%); format: functional
[31] = Induction of apoptosis in human KATO III stomach cancer cell line assessed as late apoptotic cells at 100 nM incubated for 48 hrs by annexin V-FITC/PI staining based flow cytometry analysis (reference value: 6.39%); format: functional
[32] = Induction of apoptosis in human KATO III stomach cancer cell line assessed as late apoptotic cells at 1000 nM incubated for 48 hrs by annexin V-FITC/PI staining based flow cytometry analysis (reference value: 6.39%); format: functional
[33] = Induction of apoptosis in human KATO III stomach cancer cell line assessed as necrotic cells at 10 nM incubated for 48 hrs by annexin V-FITC/PI staining based flow cytometry analysis (reference value: 0.072%); format: functional
[34] = Induction of apoptosis in human KATO III stomach cancer cell line assessed as necrotic cells at 100 nM incubated for 48 hrs by annexin V-FITC/PI staining based flow cytometry analysis (reference value: 0.072%); format: functional
[35] = Induction of apoptosis in human KATO III stomach cancer cell line assessed as necrotic cells at 1000 nM incubated for 48 hrs by annexin V-FITC/PI staining based flow cytometry analysis (reference value: 0.072%); format: functional

Fibroblast growth factor receptor 1, sequence (P11362 whole entry): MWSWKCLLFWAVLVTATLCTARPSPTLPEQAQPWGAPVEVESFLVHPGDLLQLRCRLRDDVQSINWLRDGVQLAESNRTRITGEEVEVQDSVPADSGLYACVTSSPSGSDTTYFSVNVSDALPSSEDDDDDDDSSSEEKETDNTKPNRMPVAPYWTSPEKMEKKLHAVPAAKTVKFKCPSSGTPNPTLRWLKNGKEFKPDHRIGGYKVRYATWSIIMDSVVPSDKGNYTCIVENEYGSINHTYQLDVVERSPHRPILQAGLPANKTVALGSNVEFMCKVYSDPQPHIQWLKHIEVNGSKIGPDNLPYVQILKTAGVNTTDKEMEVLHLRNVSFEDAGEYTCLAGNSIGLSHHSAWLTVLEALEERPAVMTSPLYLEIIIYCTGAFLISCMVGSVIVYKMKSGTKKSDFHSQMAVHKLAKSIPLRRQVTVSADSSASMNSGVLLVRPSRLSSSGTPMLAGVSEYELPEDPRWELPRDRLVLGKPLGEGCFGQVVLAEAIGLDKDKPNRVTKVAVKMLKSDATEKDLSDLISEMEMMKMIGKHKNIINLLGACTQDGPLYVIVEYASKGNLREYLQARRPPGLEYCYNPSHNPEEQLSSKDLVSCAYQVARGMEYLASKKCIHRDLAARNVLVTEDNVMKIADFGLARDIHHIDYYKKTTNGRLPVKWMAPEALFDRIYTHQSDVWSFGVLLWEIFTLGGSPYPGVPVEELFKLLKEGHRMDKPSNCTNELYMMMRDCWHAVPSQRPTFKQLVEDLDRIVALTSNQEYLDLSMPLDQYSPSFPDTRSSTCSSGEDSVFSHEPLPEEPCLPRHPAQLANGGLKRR
Fibroblast growth factor receptor 2 (Mus musculus), sequence (P21803 whole entry): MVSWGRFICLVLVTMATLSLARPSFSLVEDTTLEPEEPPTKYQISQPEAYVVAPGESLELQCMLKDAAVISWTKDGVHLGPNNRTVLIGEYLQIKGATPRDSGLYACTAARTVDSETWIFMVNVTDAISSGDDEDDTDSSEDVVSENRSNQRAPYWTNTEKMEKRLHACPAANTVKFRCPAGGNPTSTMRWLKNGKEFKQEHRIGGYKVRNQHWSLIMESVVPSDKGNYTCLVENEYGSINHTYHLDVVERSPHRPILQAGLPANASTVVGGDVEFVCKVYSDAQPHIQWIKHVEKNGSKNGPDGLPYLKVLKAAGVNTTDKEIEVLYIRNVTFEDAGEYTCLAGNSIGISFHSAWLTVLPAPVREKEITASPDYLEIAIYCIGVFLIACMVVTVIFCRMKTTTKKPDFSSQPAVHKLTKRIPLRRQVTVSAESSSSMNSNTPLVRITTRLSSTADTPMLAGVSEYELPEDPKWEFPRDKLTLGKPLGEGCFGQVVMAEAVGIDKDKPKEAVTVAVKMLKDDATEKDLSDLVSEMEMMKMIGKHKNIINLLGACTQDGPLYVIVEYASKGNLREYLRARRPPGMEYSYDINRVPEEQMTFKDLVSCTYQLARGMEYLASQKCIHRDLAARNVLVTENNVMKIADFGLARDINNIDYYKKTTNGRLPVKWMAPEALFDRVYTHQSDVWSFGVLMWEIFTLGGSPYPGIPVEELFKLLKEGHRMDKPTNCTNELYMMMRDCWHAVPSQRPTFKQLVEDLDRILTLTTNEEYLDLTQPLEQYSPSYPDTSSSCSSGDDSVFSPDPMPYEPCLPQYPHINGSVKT
Fibroblast growth factor receptor 3, sequence (P22607 whole entry): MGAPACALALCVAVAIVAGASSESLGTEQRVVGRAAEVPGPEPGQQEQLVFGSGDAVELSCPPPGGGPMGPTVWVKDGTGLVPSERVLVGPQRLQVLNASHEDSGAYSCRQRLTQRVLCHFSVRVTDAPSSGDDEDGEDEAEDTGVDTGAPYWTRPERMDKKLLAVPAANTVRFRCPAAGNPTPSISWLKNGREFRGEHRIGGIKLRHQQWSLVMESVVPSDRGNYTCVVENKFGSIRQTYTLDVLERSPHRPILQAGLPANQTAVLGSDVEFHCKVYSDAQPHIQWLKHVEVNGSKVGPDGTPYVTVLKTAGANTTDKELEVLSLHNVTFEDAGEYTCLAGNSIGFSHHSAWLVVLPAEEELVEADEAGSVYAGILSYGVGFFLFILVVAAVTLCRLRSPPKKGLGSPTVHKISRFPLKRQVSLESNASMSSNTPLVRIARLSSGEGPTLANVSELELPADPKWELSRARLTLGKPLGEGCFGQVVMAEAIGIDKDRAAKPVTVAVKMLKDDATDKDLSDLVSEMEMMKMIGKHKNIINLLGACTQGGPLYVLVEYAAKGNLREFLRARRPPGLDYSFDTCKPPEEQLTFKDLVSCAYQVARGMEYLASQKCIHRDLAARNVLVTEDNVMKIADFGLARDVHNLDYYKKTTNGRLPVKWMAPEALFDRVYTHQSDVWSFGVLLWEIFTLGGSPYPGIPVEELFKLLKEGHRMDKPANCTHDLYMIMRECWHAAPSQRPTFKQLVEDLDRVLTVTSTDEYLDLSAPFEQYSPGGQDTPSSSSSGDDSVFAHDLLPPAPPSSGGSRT
Fibroblast growth factor receptor 2 (Homo sapiens, UniProt P21802, V564F), sequence (P21802 22-821 V564F limits assumed): as the sequence (P21802 22-821 limits assumed) above, with V543F counted along it

With `C=CC(=O)Nc1ccc(Cn2nc(C#Cc3ccc(-c4c[nH]c(C)n4)cc3)c(C(N)=O)c2N)cc1` the IC50 [1] was > 10000 nM.

`C=CC(=O)Nc1ccc(Cn2nc(C#Cc3ccc4[nH]c(C)nc4c3)c(C(N)=O)c2N)cc1` gave an IC50 [1] of 320 nM.

With `C=CC(=O)Nc1ccc(CCn2nc(C#Cc3cc(OC)cc(OC)c3)c3c(N)ncnc32)cc1` the IC50 [1] was 3460 nM.

`C=CC(=O)Nc1cccc(Cn2nc(C#Cc3c(F)cc4[nH]c(C)nc4c3F)c(C(N)=O)c2NCCOC)c1` showed an IC50 [1] of 2910 nM.

In the case of `C=CC(=O)Nc1cccc(Cn2nc(C#Cc3c(F)cc4[nH]c(C)nc4c3F)c(C(N)=O)c2NC)c1`, the IC50 [1] is reported as > 10000 nM.

With `C=CC(=O)Nc1ccc(Cn2nc(C#Cc3ccc4oc(C)nc4c3)c(C(N)=O)c2N)cc1` the IC50 [1] was 610 nM.

Work on `O=C(c1ccc(F)cc1)C1CCN(CCn2c(=O)[nH]c3ccccc3c2=O)CC1` [KETANSERIN] yielded a half-life at 1 µM [2] of 43.7 min, a CLint scaled at 1 µM [3] of 36.7 mL/min/kg and a CLhep predicted at 1 µM [4] of 13.2 mL/min/kg. It also gave a hepatic extraction ratio at 0.75 h, 1 µM [5] of 0.639.

With `C=CC(=O)Nc1ccc(Cn2nc(-c3ccc4[nH]c(C)nc4c3)c3c(N)ncnc32)cc1` the IC50 [1] was 2000 nM.

With `C=CC(=O)Nc1ccccc1Cn1nc(C#Cc2ccc3[nH]c(C)nc3c2)c(C(N)=O)c1N` the IC50 [1] was 880 nM.

Work on `C=CC(=O)Nc1ccc(CCCCn2nc(C#Cc3cc(OC)cc(OC)c3)c3c(N)ncnc32)cc1` yielded an IC50 [1] of 2340 nM.

Molecule `C=CC(=O)N1CC[C@H](n2nc(C#Cc3cc(OC)cc(OC)c3)c3c(N)ncnc32)C1` [FUTIBATINIB] has an IC50 (SNU-16 [6]) of 0.44 nM, an IC50 [7] of 4 nM and an IC50 (NCI-H520) of 14 nM.

`C=CC(=O)Nc1ccc(Cn2nc(-c3cc4cc(C)cc(OC)c4s3)c3c(N)ncnc32)cc1` gave an IC50 [1] of 23 nM.

Work on `C=CC(=O)Nc1ccc(CCCn2nc(C#Cc3cc(OC)cc(OC)c3)c3c(N)ncnc32)cc1` yielded an IC50 [1] of 1590 nM.

In the case of `C=CC(=O)Nc1ccc(Cn2nc(C#Cc3c(F)cc4[nH]c(C)nc4c3F)c(C(N)=O)c2N)cc1`, the IC50 [1] is reported as 130 nM.

With `C=CC(=O)Nc1ccc(Cn2nc(C#Cc3cc(OC)cc(OC)c3)c3c(N)ncnc32)cc1` the IC50 [1] was 660 nM.

Molecule `C=CC(=O)Nc1cccc(Cn2nc(C#Cc3c(F)cc4[nH]c(C)nc4c3F)c(C(N)=O)c2N)c1` has an IC50 [8] of 41 nM, an IC50 [9] of 99 nM and an IC50 [10] of 62 nM. The IC50 (SNU-16 [6]) was 19 nM, the IC50 [7] was 59 nM and the IC50 (NCI-H520) was 73 nM. For the same molecule, the IC50 (BaF3 [11]) was 87 nM, the inhibition [12] was “Dose-Dependent Effect” and the inhibition (BaF3 [13]) was “Dose-Dependent Effect”. For the same molecule, the inhibition [14] was “Dose-Dependent Effect”, the inhibition (SNU-16 [15]) was “Dose-Dependent Effect” and the Activity (BaF3 [16]) was “Active”. The Activity (BaF3 [17]) was “Active”, the Activity (KATO III) was “Dose-Dependent Effect” and the Activity [18] was 35.3%. It also gave an Activity [19] of 59.4%, an Activity [20] of 66.4% and an Activity [21] of 25.5%. The Activity [22] was 3.33%, the Activity [23] was 35.7% and the viability at 0.01 µM [24] was 86.7%. The viability at 0.1 µM [25] was 82.4%, the viability at 1 µM [26] was 77.1% and the Activity [27] was 5.84%. It also gave an Activity [28] of 8.85%, an Activity [29] of 10.1% and an Activity [30] of 7.38%. For the same molecule, the Activity [31] was 8.53%, the Activity [32] was 12.7% and the Activity [33] was 0.065%. The Activity [34] was 0.27%, the Activity [35] was 0.085% and the half-life at 1 µM [2] was 46.4 min. For the same molecule, the CLint scaled at 1 µM [3] was 34.5 mL/min/kg and the CLhep predicted at 1 µM [4] was 12.9 mL/min/kg.

For `C=CC(=O)Nc1cccc(Cn2nc(C#Cc3c(F)cc4[nH]c(C)nc4c3F)c(C(N)=O)c2NCC)c1`, the IC50 [1] was > 10000 nM.

In the case of `C=CC(=O)Nc1ccc(Cn2nc(C#Cc3ccc4sc(C)nc4c3)c(C(N)=O)c2N)cc1`, the IC50 [1] is reported as 950 nM.

For `C=CC(=O)Nc1ccc(Cn2nc(-c3ccc(Oc4nccc(C)n4)c(F)c3)c3c(N)ncnc32)cc1`, the IC50 [1] was > 10000 nM.

In the case of `C=CC(=O)Nc1ccc(Cn2nc(-c3ccc(Oc4ccccc4)cc3)c3c(N)ncnc32)cc1`, the IC50 [1] is reported as 4800 nM.

Work on `C=CC(=O)Nc1ccc(Cn2nc(C#Cc3ccc4[nH]c(C)nc4c3)c3c(N)ncnc32)cc1` yielded an IC50 [1] of 680 nM.
